In patent US7163952B2, “Azole compound and medicinal use thereof” (Japan Tobacco Inc., priority 2001, dated 2007):

What was measured:
male ob/ob mice = test: Hypoglycemic action in ob/ob mice, oral administration; assay type: in vivo; conditions: Mus musculus, fasting, 3 hr after administration, relative to control group, read-out: Decrease in blood glucose level (%) 3 hr; for inhibition in vivo at 1 mg/kg: dose 1 mg/kg oral; for inhibition in vivo at 3 mg/kg: dose 3 mg/kg oral
Procedure: A 0.5% methyl cellulose suspension of the test compound was orally administered to male ob/ob mice (6 to 9 weeks old) grouped based on blood glucose level. A 0.5% methyl cellulose solution alone was administered to a control group.
The blood was drawn from the orbital vein with anesthesia at 3 hours after the administration. The blood was drawn under fasting by removing the feed immediately before test compound administration. The blood thus drawn was separated by centrifugation and the blood glucose level was measured from the obtained plasma according to the hexokinase method (glucose measure kit). For evaluation, decrease in the blood glucose level of the test compound administration group relative to the control group was shown in percentage.

[1] = target: T1, recombinant human protein tyrosine phosphatase 1B (Homo sapiens, UniProt P18031); test: Protein tyrosine phosphatase 1B inhibitory action (malachite green, phosphorylated insulin receptor peptide substrate); assay type: biochemical; conditions: recombinant human PTP1B, 60 min room temperature, absorbance at 650 nm
T1 construct: purchased UBI
T1 sequence (P18031 1-435): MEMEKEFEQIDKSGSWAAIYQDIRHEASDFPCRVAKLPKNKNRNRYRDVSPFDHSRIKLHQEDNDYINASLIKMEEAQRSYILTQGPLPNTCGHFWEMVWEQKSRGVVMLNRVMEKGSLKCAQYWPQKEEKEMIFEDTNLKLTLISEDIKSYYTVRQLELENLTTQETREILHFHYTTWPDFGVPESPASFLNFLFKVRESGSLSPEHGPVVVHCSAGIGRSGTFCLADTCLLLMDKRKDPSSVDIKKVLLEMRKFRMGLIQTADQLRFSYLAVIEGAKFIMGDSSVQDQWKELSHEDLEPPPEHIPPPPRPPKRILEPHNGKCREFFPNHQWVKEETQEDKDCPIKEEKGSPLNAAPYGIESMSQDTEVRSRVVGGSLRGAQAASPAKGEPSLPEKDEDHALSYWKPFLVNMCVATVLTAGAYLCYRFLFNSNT
Procedure: Preparation of Assay Buffer:
50 mM Tris-HCl buffer (pH 7.5), and 50 mM NaCl and 3 mM dithiothreitol (DTT) were prepared.
Respective 10 mM DMSO solutions of 0.1, 0.3, 1, 3 and 10 μM test compounds were diluted with the above-mentioned assay buffer so that the final dimethyl sulfoxide (DMSO) concentration would be not more than 1%. As a control, an assay buffer was used.
Preparation of Substrate:
A synthetic peptide consisting of 12 amino acids corresponding to 1142nd–1153rd of insulin receptor sequence, wherein three tyrosines therein had been phosphorylated, was diluted with the above-mentioned assay buffer to 80 μM.
A recombinant human protein tyrosine phosphatase 1B (manufactured by UBI) was diluted with the above-mentioned assay buffer (1.2 ng/25 μl).
A sample (10 μl) and a substrate (25 μl) prepared as mentioned above were successively added to a 96 well plate, and an enzyme (25 μl) prepared as mentioned above was added and mixed. After incubation at room temperature for 60 min., malachite green (120 μl, Biomol), which is a phosphorus color fixing agent, was added, and the mixture was further incubated at room temperature for 20 min. to allow color development. The absorbance at 650 nm was measured on a plate reader, and the protein tyrosine phosphatase 1B inhibitory action of the test compound was evaluated.

db/db mice = test: Blood lipid lowering action in db/db mice, oral administration once a day for 14 days; assay type: in vivo; conditions: non-fasting; for Plasma triglyceride concentration (mg/dL) Day 7: Day 7 (control group 508); for Plasma triglyceride concentration (mg/dL) Day 14: Day 14 (control group 622)
Procedure: A 0.5% methyl cellulose suspension of the test compound was orally administered to 7-week-old db/db mice once a day for 14 days. The 0.5% methyl cellulose solution alone was administered to the control group.
The blood was drawn from the orbital vein with light ether anesthesia before test compound administration on day 7 day 14 under non-fasting condition. The blood thus drawn was separated by centrifugation and the plasma triglyceride concentration was measured from the obtained plasma according to the enzyme method (triglyceride measure kit).

Row | Compound | inhibition in vivo at 1 mg/kg (male ob/ob mice) | inhibition in vivo at 3 mg/kg (male ob/ob mice) | IC50 [1] | Plasma triglyceride concentration (mg/dL) Day 7 (db/db mice; dose 10 mg/kg oral once a day) | Plasma triglyceride concentration (mg/dL) Day 14 (db/db mice; dose 10 mg/kg oral once a day) | Plasma triglyceride concentration (mg/dL) Day 7 (db/db mice; dose 30 mg/kg oral once a day) | Plasma triglyceride concentration (mg/dL) Day 14 (db/db mice; dose 30 mg/kg oral once a day) | melting point | inhibition in vivo at 0.3 mg/kg (male ob/ob mice; dose 0.3 mg/kg oral)
1 | CN(c1ccc(C(=O)O)cc1)c1nc(-c2ccc(NCc3ccc(C4CCCCC4)cc3)cc2)cs1 [Example 3, 4-(N-(4-(4-(4-cyclohexylbenzylamino)phenyl)-2-thiazolyl)-N-methylamino)benzoic acid] | 27% | 35% | 0.5 µM |  |  |  |  |  | 
2 | CN(Cc1ccc(C2CCCCC2)cc1)c1ccc(-c2csc(N(C)Cc3ccc(C(=O)[O-])cc3)n2)cc1.[Na+] [Example 102, sodium 4-(N-(4-(4-(N-(4-cyclohexylbenzyl)-N-methylamino)phenyl)-2-thiazolyl)-N-methylaminomethyl)benzoate] |  |  |  | 277 mg/dL | 349 mg/dL | 250 mg/dL | 307 mg/dL | 240 °C | 
3 | CN(Cc1ccc(C(=O)O)cc1)c1nc(-c2ccc(NCc3ccc(C4CCCCC4)cc3)cc2)cs1 [Example 115, 4-((N-(4-(4-(4-cyclohexylbenzylamino)phenyl)-2-thiazolyl)-N-methylamino)methyl)benzoic acid] |  | 34% | 0.48 µM |  |  |  |  | 184 °C (dec.) | 
4 | CN(Cc1ccc([C@H]2CC[C@H](O)CC2)cc1)c1ccc(-c2csc(N(C)Cc3ccc(C(=O)O)cc3)n2)cc1 [Example 196, trans-4-((N-(4-(4-(N-(4-(4-hydroxycyclohexyl)benzyl)-N-methylamino)phenyl)-2-thiazolyl)-N-methylamino)methyl)benzoic acid] |  | -8% | 0.83 µM |  |  |  |  | 194 to 196 °C | 
5 | CN(Cc1ccc(C2CCC(Cl)(Cl)CC2)cc1)c1ccc(-c2csc(N(C)Cc3ccc(C(=O)O)cc3)n2)cc1 [Example 208, 4-((N-(4-(4-(N-(4-(4,4-dichlorocyclohexyl)benzyl)-N-methylamino)phenyl)-2-thiazolyl)-N-methylamino)methyl)benzoic acid] |  | 21% | 0.11 µM |  |  |  |  | 210 to 213 °C | 
6 | CN(Cc1ccc(C2CCC(F)(F)CC2)cc1)c1ccc(-c2csc(N(C)Cc3ccc(C(=O)O)cc3)n2)cc1 [Example 209, 4-((N-(4-(4-(N-(4-(4,4-difluorocyclohexyl)benzyl)-N-methylamino)phenyl)-2-thiazolyl)-N-methylamino)methyl)benzoic acid] |  | 20% | 0.49 µM |  |  |  |  | 190 to 193 °C | 
7 | CN(Cc1ccc(C2CCC(C)(C)CC2)cc1)c1ccc(-c2csc(N(C)Cc3ccc(C(=O)O)cc3)n2)cc1 [Example 215, 4-((N-(4-(4-(N-(4-(4,4-dimethylcyclohexyl)benzyl)-N-methylamino)phenyl)-2-thiazolyl)-N-methylamino)methyl)benzoic acid] | 32% | 39% | 0.11 µM |  |  |  |  | 155 to 158 °C | -9%
8 | O=C(O)c1ccc(CN(CC2CCCCC2)c2nc(-c3nc4ccc(OCc5ccc(Cl)c(Cl)c5)cc4o3)cs2)cc1 [Example 217, 4-((N-cyclohexylmethyl-N-(4-(6-(3,4-dichlorobenzyloxy)-2-benzooxazolyl)-2-thiazolyl)amino)methyl)benzoic acid] |  | 20% | 0.26 µM |  |  |  |  | 188 to 190 °C | 
9 | CC1CCC(c2ccc(CN(C)c3ccc(-c4csc(N(C)Cc5ccc(C(=O)O)cc5)n4)cc3)cc2)CC1 (stereo not shown) [Example 218, 4-((N-methyl-N-(4-(4-(N-methyl-N-(4-(4-methylcyclohexyl)benzyl)amino)phenyl)-2-thiazolyl)amino)methyl)benzoic acid] |  | 27% | 0.15 µM |  |  |  |  | 185 to 191 °C | 
10 | CCCC(CCC)c1ccc(CN(C)c2ccc(-c3csc(N(C)Cc4ccc(C(=O)O)cc4)n3)cc2)cc1 [Example 230, 4-((N-methyl-N-(4-(4-(N-methyl-N-(4-(1-propylbutyl)benzyl)amino)phenyl)-2-thiazolyl)amino)methyl)benzoic acid] |  | 40% | 0.15 µM |  |  |  |  | 114 to 115 °C | 
